# Results: patent US20130302889A1, “Differentiation of Bone Marrow Cells into Neuronal Cells and Uses Therefor” (Philadelphia Health and Education Corporation, priority 2002, published 2013)
# Entries after “also recorded” stand apart in the source; their conditions may differ.
# Key:
# rMSCs [1] = test: Neuronal differentiation of rMSCs (morphology); type: cell-based, rat; conditions: for neuronal morphologies elicited by anti-oxidant treatment: alone and in combination, time course similar to BME
# Description: Rat MSCs were originally cultured in alpha-Modified Eagle's Medium (alpha-MEM) supplemented with 20% FBS, 2 mM L-glutamine, 100 units per milliliter penicillin, […] streptomycin and 25 nanogramps per milliliter amphotericin B. For each passage the cells were plated at about 8,000 cells per square centimeter and grown to confluency. At passage 6 the cells were transferred to DMEM (pH 8.0)/20% FBS without additional supplementation, and maintained beyond passage 14. The rat MSCs were obtained with a protocol and procedures approved by the Institutional IACUC. The human samples were obtained from volunteers with informed consent and according to a protocol approved by the Institutional Review Board.
# To induce the neuronal phenotype, rMSCs were initially maintained in sub-confluent cultures in media supplemented with 1 mM beta-mercaptoethanol (BME) for 24 hours. […] To effect neuronal differentiation, the cells were transferred to serum-free medium containing 1-10 millimolar BME (SFM/BME). […] Within 60 minutes of exposure to SFM/BME changes in morphology of some of the rMSCs were apparent (FIG. 2C). Responsive cells progressively assumed neuronal morphological characteristics over the first 3 hours. Initially, cytoplasm in the flat rMSCs retracted towards the nucleus, forming a contracted multipolar, cell body, leaving membranous, process-like extensions peripherally (0-90 minutes).
# To begin examining the hypothesis that the anti-oxidant properties of BME mediated induction of neuronal differentiation in MSCs, rMSCs were treated with other anti-oxidants, e.g., dimethylsulfoxide (DMSO), butylated hydroxyanisole (BHA), or butylated hydroxytoluene (BHT), ascorbic acid, dimethylfumarate, n-acetylcysteine, and the like, both alone and in combination with each other.
# rMSCs [2] = test: Western blot for NSE in rMSC cultures; type: cell-based, rat; conditions: 5 hours post BME treatment, versus uninduced rMSCs
# Description: […] of protein extract from untreated (U) and BME-induced (I) rMSC cultures was separated on a 4%-20% gradient acrylamide gel and electrophoretically transferred to a nylon membrane. The Western blot was probed for tubulin, expression using an anti-tubulin monoclonal antibody (Sigma Chemical Co., St. Louis, Mo.) followed by secondary antibody conjugated with horse radish peroxidase (HRP). Color development was performed using enhanced chemiluminescence reagents (Amersham, Piscataway, N.J.). The blot was then stripped and probed for NSE expression using anti-NSE polyclonal antibody (ICN). Again, the secondary antibodies were HRP-conjugated, and color was developed using ECL reagents, […]
# rMSC clones = test: Differentiation of clonal rMSC lines; type: cell-based, rat; conditions: after BME treatment
# Description: To establish clones, rMSCs were plated at approximately 10 cells per square centimeters, grown to 50-150 cells per colony, isolated with cloning cylinders, transferred to separate wells and eventually to individual flasks.
# rMSCs [3] = test: Immunocytochemistry for neuronal markers in treated rMSCs; type: cell-based, rat
# Description: Cultured rMSCs were fixed with 4% paraformaldehyde, incubated with primary antibody overnight at 4° C., incubated with secondary antibody for one hour, followed by exposure to avidin-biotin complex for one hour at 25° C. Diaminobenzidene (DAB) served as chromogenic substrate for HRP.
# To further characterize potential neuronal differentiation, BME-treated cultures were stained to detect expression of the neuronal marker neuron-specific enolase (NSE). Unresponsive, flat rMSCs expressed very low, but detectable, levels of NSE protein, consistent with previous detection of minute amounts of protein and/or message in cells of bone marrow origin (Pechumer et al., 1993, Lab. Invest. 89:743-749; Reid et al., 1991, Clin. Pathol. 44:483-486; vanObberghen et al., 1988, J. Neurosci. Res. 19:450-456).
# hMSCs = test: Neuronal differentiation of human MSCs; type: cell-based
# Description: Cells from passage two were subjected to the neuronal differentiation protocol and stained for NSE or NF-M expression. […] Contracted cell bodies elaborated processes and stained strongly for NSE expression within 3 hours (FIGS. 8A and 8B). Transitional cells were also evident ( ? ). […] Growth cone morphologies with filopodial extensions ( ? ) were clearly evident on the processes elaborated by paired neurons depicted in the image in FIG. 8C.
structure (smiles),measurement,setting,value
"Cc1cc(C(C)(C)C)c(O)c(C(C)(C)C)c1 [BHT, butylated hydroxytoluene]",neuronal morphologies elicited by anti-oxidant treatment,rMSCs [1],elicited neuronal morphologies
O=C1O[C@H]([C@@H](O)CO)C(O)=C1O [ascorbic acid],neuronal morphologies elicited by anti-oxidant treatment,rMSCs [1],elicited neuronal morphologies
"OCCS [BME, beta-mercaptoethanol]",NSE expression (Western blot),rMSCs [2],significant increase in NSE expression
same,generation of NSE-positive neurons from single-cell clones,rMSC clones,"differentiated into NSE-positive neurons; also recorded: generated refractile, process-bearing, NSE-positive cells"
same,percentage of cells adopting a neuronal morphology,"rMSCs [1]; SFM with 1-10 millimolar BME, effect of concentration",increased at higher BME concentrations
same,percentage of cells adopting a neuronal morphology,rMSCs [1]; effect of BME pretreatment,enhanced by BME pretreatment
same,time to apparent changes in morphology,rMSCs [1]; serum-free medium containing 1-10 millimolar BME (SFM/BME),≤ 60 minutes
same,changes in morphology,"rMSCs [1]; sub-confluent cultures, media supplemented with 1 mM BME for 24 hours",no changes in morphology were evident
same,NSE expression (immunostaining),rMSCs [3]; BME-treated cultures,increased expression of NSE
same,time to increased expression of neuronal marker NSE,rMSCs [3]; after treatment,≤ 30 min
same,NF-M expression (immunostaining),rMSCs [3]; cells exhibiting neuronal morphologies,increased expression of NF-M
same,NeuN expression (immunostaining),rMSCs [3]; differentiated cultures,stained for NeuN expression
same,NF-M expression,hMSCs; hMSC-derived neurons,expressed NF-M
same,neuronal characteristics and NSE expression,"hMSCs; hMSCs passage two, after BME treatment",attained neuronal characterises and increased NSE expression
same,time to strong NSE staining,"hMSCs; hMSCs, BME treatment",≤ 3 h
"COc1ccc(O)c(C(C)(C)C)c1 [BHA, butylated hydroxyanisole]",neuronal morphologies elicited by anti-oxidant treatment,rMSCs [1],elicited neuronal morphologies
"C[S+](C)[O-] [DMSO, dimethylsulfoxide]",neuronal morphologies elicited by anti-oxidant treatment,rMSCs [1],elicited neuronal morphologies
CC(=O)N[C@@H](CS)C(=O)O [n-acetylcysteine],neuronal morphologies elicited by anti-oxidant treatment,rMSCs [1],elicited neuronal morphologies
